These are literature values, as cited in PMC7482441 (Pharmacological Research, 2020).

In one series the test system is mdx mice. Particulars: cited from earlier work.
The test system of another series is BIO 14.6 hamster. The note with it: cited from earlier work.

As to `CC(C)c1ccc(C(=O)NC(=N)N)cc1S(C)(=O)=O` [Cariporide], the “creatine kinase (CK) levels, inflammation, fibrosis and histological skeletal muscle damage” value in the series with mdx mice is “markedly reduced”. Also, the “intracellular Ca2+ levels and Na+ influx” value in the series with BIO 14.6 hamster is on record as “normalised”.
